Measured values reported in PubChem BioAssay AID330 (DTP/NCI, 2004).
Where “and” joins values, the source holds several entries; their conditions need not be identical. Equal entries are not always repeated. Inconclusive results and toxic doses are left out. Square brackets hold non-standard residues; d marks the D form. Peptide text beside a SMILES is read from it. * marks the point of attachment. ξ: configuration not given here. Cbz = O=C(OCc1ccccc1)*; ξL = CC(C)CC(N)C(=O)O; OBn = c1ccc(CO*)cc1

Test system: P388 leukemia ip, CD2F1 mice, survival T/C
Experiment: NCI In Vivo Anticancer Drug Screen. Data for tumor model P388 Leukemia (intraperitoneal) in CD2F1 (CDF1) mice
Settings: endpoint: median survival time, higher = longer survival
Outline: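 Mice carrying the transplanted tumor received test compound or vehicle. Survival was recorded in each group, and the value is the treated-group measurement divided by that of the vehicle-treated control group.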

[1] = dose: 50.0 mg/kg/injection, schedule: Q01DX005 (ip), vehicle: saline with Tween-80
[2] = dose: 100.0 mg/kg/injection, schedule: Q01DX005 (ip), vehicle: saline with Tween-80
[3] = dose: 200.0 mg/kg/injection, schedule: Q01DX005 (ip), vehicle: saline with Tween-80
[4] = dose: 60.0 mg/kg/injection, schedule: Q01DX005 (ip), vehicle: saline with Tween-80
[5] = dose: 120.0 mg/kg/injection, schedule: Q01DX005 (ip), vehicle: saline with Tween-80
[6] = dose: 240.0 mg/kg/injection, schedule: Q01DX005 (ip), vehicle: saline with Tween-80
[7] = dose: 100.0 mg/kg/injection, schedule: Q04DX003 (ip), vehicle: saline with Tween-80
[8] = dose: 200.0 mg/kg/injection, schedule: Q04DX003 (ip), vehicle: saline with Tween-80
[9] = dose: 400.0 mg/kg/injection, schedule: Q04DX003 (ip), vehicle: saline with Tween-80
[10] = dose: 100.0 mg/kg/injection, schedule: Q04DX002 (ip), vehicle: saline with Tween-80
[11] = dose: 200.0 mg/kg/injection, schedule: Q04DX002 (ip), vehicle: saline with Tween-80
[12] = dose: 400.0 mg/kg/injection, schedule: Q04DX002 (ip), vehicle: saline with Tween-80
[13] = dose: 50.0 mg/kg/injection, schedule: Q01DX009 (ip), vehicle: Klucel (hydroxypropylcellulose) (HPC)
[14] = dose: 100.0 mg/kg/injection, schedule: Q01DX009 (ip), vehicle: Klucel (hydroxypropylcellulose) (HPC)
[15] = dose: 200.0 mg/kg/injection, schedule: Q01DX009 (ip), vehicle: Klucel (hydroxypropylcellulose) (HPC)

CC(C)CC(NC(=O)OCc1ccccc1)C(=O)NCC(=O)NCC(=O)OCc1ccccc1 (stereo not drawn) (Cbz-[ξL]-Gly-Gly-OBn)
T/C [1]: 105 % of control | T/C [2]: 105 % of control | T/C [3]: 102 % of control

COC(=O)C(=O)c1c(C(=O)OC)nc2nnc(N)n2c1-c1ccc(O)c(OC)c1
T/C [4]: 92 % of control | T/C [5]: 94 % of control | T/C [6]: 94 % of control

Cc1ccc(S(=O)(=O)NC(=S)Nc2ccccc2)cc1
T/C [7]: 99 % of control | T/C [8]: 108 % of control | T/C [9]: 100 % of control

CCCCCCCCCCCCOc1ccccc1C(=O)O
T/C (dose: 6.25 mg/kg/injection, schedule: Q04DX003 (ip), vehicle: saline sonified): 100 % of control | T/C (dose: 12.5 mg/kg/injection, schedule: Q04DX003 (ip), vehicle: saline sonified): 100 % of control | T/C (dose: 25.0 mg/kg/injection, schedule: Q04DX003 (ip), vehicle: saline sonified): 100 % of control

Cc1ccc(N(O)C(=O)c2ccccc2)c(C)c1
T/C [1]: 102 % of control and 98 % of control | T/C [2]: 92 % of control and 93 % of control | T/C [3]: 123 % of control and 98 % of control | T/C (dose: 400.0 mg/kg/injection, schedule: Q01DX005 (ip), vehicle: saline with Tween-80): 111 % of control

O=C(O)CCC12CCC(=O)N1Cc1ccccc1C2=O (stereo not given)
T/C [4]: 107 % of control | T/C [5]: 110 % of control | T/C [6]: 109 % of control

O=c1[nH]n(-c2ccccc2)c2ccccc12
T/C (dose: 12.5 mg/kg/injection, schedule: Q04DX003 (ip), vehicle: saline with Tween-80): 94 % of control | T/C (dose: 25.0 mg/kg/injection, schedule: Q04DX003 (ip), vehicle: saline with Tween-80): 90 % of control | T/C (dose: 50.0 mg/kg/injection, schedule: Q04DX003 (ip), vehicle: saline with Tween-80): 90 % of control | T/C [7]: 95 % of control

COc1cc2c(c(OC)c1OC)-c1oncc1CC2
T/C (dose: 100.0 mg/kg/injection, schedule: Q04DX003 (ip), vehicle: Klucel (hydroxypropylcellulose) (HPC)): 90 % of control | T/C (dose: 200.0 mg/kg/injection, schedule: Q04DX003 (ip), vehicle: Klucel (hydroxypropylcellulose) (HPC)): 92 % of control | T/C (dose: 400.0 mg/kg/injection, schedule: Q04DX003 (ip), vehicle: Klucel (hydroxypropylcellulose) (HPC)): 87 % of control

Cc1c(N=Nc2cccc(Cl)c2)c(-c2ccccc2)nn1C(N)=S
T/C (dose: 100.0 mg/kg/injection, schedule: Q01DX001 (ip), vehicle: saline with Tween-80): 89 % of control | T/C (dose: 200.0 mg/kg/injection, schedule: Q01DX001 (ip), vehicle: saline with Tween-80): 92 % of control | T/C (dose: 400.0 mg/kg/injection, schedule: Q01DX001 (ip), vehicle: saline with Tween-80): 90 % of control

CSc1nc(=O)c(=O)nc(Nc2ccccc2)n1-c1ccccc1
T/C (dose: 50.0 mg/kg/injection, schedule: Q01DX009 (ip), vehicle: saline with Tween-80): 86 % of control | T/C (dose: 200.0 mg/kg/injection, schedule: Q01DX009 (ip), vehicle: saline with Tween-80): 87 % of control

CC(N)(CCS(=O)CP(=O)(O)O)C(=O)O (stereo not given)
T/C (dose: 60.0 mg/kg/injection, schedule: Q01DX005 (ip), vehicle: saline): 100 % of control | T/C (dose: 120.0 mg/kg/injection, schedule: Q01DX005 (ip), vehicle: saline): 94 % of control

Cc1noc(C)c1C1(Br)C(Br)CCCC1Br (stereo not given)
T/C [10]: 105 % of control | T/C [11]: 104 % of control | T/C [12]: 114 % of control

C=C1C(=O)OC(CCCCCCCCCCCCCC(C)=O)[C@H]1C(=O)O (stereo not given in full)
T/C (dose: 5.0 mg/kg/injection, schedule: Q01DX005 (ip), vehicle: Klucel (hydroxypropylcellulose) (HPC)): 93 % of control | T/C (dose: 5.0 mg/kg/injection, schedule: Q01DX005 (ip), vehicle: saline): 93 % of control | T/C (dose: 10.0 mg/kg/injection, schedule: Q01DX005 (ip), vehicle: Klucel (hydroxypropylcellulose) (HPC)): 90 % of control | T/C (dose: 10.0 mg/kg/injection, schedule: Q01DX005 (ip), vehicle: saline): 91 % of control | T/C (dose: 20.0 mg/kg/injection, schedule: Q01DX005 (ip), vehicle: Klucel (hydroxypropylcellulose) (HPC)): 110 % of control and 90 % of control and 107 % of control | T/C (dose: 20.0 mg/kg/injection, schedule: Q01DX005 (ip), vehicle: saline): 96 % of control | T/C (dose: 40.0 mg/kg/injection, schedule: Q01DX005 (ip), vehicle: Klucel (hydroxypropylcellulose) (HPC)): 105 % of control and 98 % of control | T/C (dose: 80.0 mg/kg/injection, schedule: Q01DX005 (ip), vehicle: Klucel (hydroxypropylcellulose) (HPC)): 107 % of control

CCCCCCCCCCCCCCCCC1(C)c2ccccc2N(C)C12C=Cc1cc([N+](=O)[O-])ccc1O2 (stereo not given)
T/C [7]: 103 % of control | T/C [8]: 100 % of control | T/C [9]: 100 % of control

COc1cccc2c(NCCCN(C)CCCNc3c4ccccc4nc4c(OC)cccc34)c3ccccc3nc12
T/C (dose: 1.25 mg/kg/injection, schedule: Q01DX009 (ip), vehicle: water): 120 % of control | T/C (dose: 2.5 mg/kg/injection, schedule: Q01DX009 (ip), vehicle: water): 124 % of control | T/C (dose: 10.0 mg/kg/injection, schedule: Q01DX009 (ip), vehicle: water): 163 % of control

COc1ccc(-c2c(O)c3cccnc3[nH]c2=O)cc1
T/C (dose: 50.0 mg/kg/injection, schedule: Q01DX009 (ip), vehicle: saline): 102 % of control | T/C (dose: 100.0 mg/kg/injection, schedule: Q01DX009 (ip), vehicle: saline): 104 % of control | T/C (dose: 200.0 mg/kg/injection, schedule: Q01DX009 (ip), vehicle: saline): 102 % of control

CCN(CC)Cc1cc(C)c(O)c(N=Nc2ccc([N+](=O)[O-])cc2)c1C
T/C [10]: 101 % of control | T/C [11]: 99 % of control | T/C [12]: 97 % of control

CCOP(=S)(Oc1cnn(C)c(=O)c1OC)OC(C)C (stereo not given)
T/C (dose: 0.78 mg/kg/injection, schedule: Q01DX005 (ip), vehicle: saline with Tween-80): 98 % of control | T/C (dose: 1.56 mg/kg/injection, schedule: Q01DX005 (ip), vehicle: saline with Tween-80): 100 % of control | T/C (dose: 3.13 mg/kg/injection, schedule: Q01DX005 (ip), vehicle: saline with Tween-80): 98 % of control

N#CC1=C(Nc2ccccc2Cl)SC2(CCCC2)NC1=O
T/C (dose: 60.0 mg/kg/injection, schedule: Q01DX005 (ip), vehicle: Klucel (hydroxypropylcellulose) (HPC)): 100 % of control | T/C (dose: 120.0 mg/kg/injection, schedule: Q01DX005 (ip), vehicle: Klucel (hydroxypropylcellulose) (HPC)): 100 % of control | T/C (dose: 240.0 mg/kg/injection, schedule: Q01DX005 (ip), vehicle: Klucel (hydroxypropylcellulose) (HPC)): 92 % of control

CCOC(=O)/C=C/c1c[nH]c(C(=O)OCC)c1
T/C [13]: 93 % of control | T/C [14]: 91 % of control | T/C [15]: 93 % of control | T/C (dose: 400.0 mg/kg/injection, schedule: Q01DX009 (ip), vehicle: Klucel (hydroxypropylcellulose) (HPC)): 108 % of control

Nc1ncnc2c1ncn2CC1OC(O)C(O)C1NC(=O)C(N)Cc1ccccc1 (stereo not given)
T/C (dose: 8.0 mg/kg/injection, schedule: Q01DX005 (ip), vehicle: saline): 94 % of control | T/C (dose: 16.0 mg/kg/injection, schedule: Q01DX005 (ip), vehicle: saline): 106 % of control | T/C (dose: 32.0 mg/kg/injection, schedule: Q01DX005 (ip), vehicle: saline): 94 % of control | T/C (dose: 64.0 mg/kg/injection, schedule: Q01DX005 (ip), vehicle: saline): 101 % of control | T/C (dose: 128.0 mg/kg/injection, schedule: Q01DX005 (ip), vehicle: saline): 94 % of control | T/C (dose: 256.0 mg/kg/injection, schedule: Q01DX005 (ip), vehicle: saline): 97 % of control

C/C(=N\NC(=S)N1CC2CCC(CC2)C1)c1ccccn1
T/C (dose: 1.56 mg/kg/injection, schedule: Q01DX009 (ip), vehicle: Klucel (hydroxypropylcellulose) (HPC)): 101 % of control and 118 % of control | T/C (dose: 3.12 mg/kg/injection, schedule: Q01DX009 (ip), vehicle: Klucel (hydroxypropylcellulose) (HPC)): 107 % of control | T/C (dose: 3.13 mg/kg/injection, schedule: Q01DX009 (ip), vehicle: Klucel (hydroxypropylcellulose) (HPC)): 120 % of control | T/C (dose: 6.25 mg/kg/injection, schedule: Q01DX009 (ip), vehicle: Klucel (hydroxypropylcellulose) (HPC)): 115 % of control and 123 % of control | T/C (dose: 12.5 mg/kg/injection, schedule: Q01DX009 (ip), vehicle: Klucel (hydroxypropylcellulose) (HPC)): 115 % of control

C=CCSc1nc2ccc(NC(=O)CCC(=O)O)cc2s1
T/C [13]: 103 % of control | T/C [14]: 111 % of control | T/C [15]: 93 % of control
